From patent publication US8637496B2, “Compounds having a monogalactosyldiacylglycerol synthase inhibitory activity as herbicide or algaecide, herbicide and algaecide compositions” (Commissariat a l'Energie Atomique, priority 2007, dated 2014)
Structures can show the parent of a compound that is named as a salt.

Molecular target: T1, MGDG synthase in isolated spinach chloroplast envelope membranes (Spinacia oleracea, UniProt Q9SM44)
T1 construct: envelope membranes purified from the lysate by sucrose centrifugation gradient; from tissue; host or cells: envelope membranes of chloroplasts from spinach leaves
T1 sequence (Q9SM44 99-522): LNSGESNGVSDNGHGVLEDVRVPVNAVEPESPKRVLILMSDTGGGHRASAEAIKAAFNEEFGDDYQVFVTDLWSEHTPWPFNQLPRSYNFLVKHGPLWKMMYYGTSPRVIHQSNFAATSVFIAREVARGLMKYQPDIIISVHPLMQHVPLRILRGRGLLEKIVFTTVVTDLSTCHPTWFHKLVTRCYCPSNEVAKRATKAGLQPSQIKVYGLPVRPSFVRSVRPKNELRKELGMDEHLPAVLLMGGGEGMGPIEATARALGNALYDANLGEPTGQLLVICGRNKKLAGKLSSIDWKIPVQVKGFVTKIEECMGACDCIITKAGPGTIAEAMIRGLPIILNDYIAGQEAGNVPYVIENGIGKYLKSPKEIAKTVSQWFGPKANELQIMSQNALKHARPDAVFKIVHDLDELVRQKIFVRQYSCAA
Assay: MGDG synthase activity in envelope membrane fractions isolated from spinach chloroplasts
Assay type: biochemical
Settings: not given
Source text: All the operations have been carried out as described in the article by Maréchal, E. et al., J. Biol. Chem., 1995, 270, 5714-5722. Crude chloroplasts were obtained from 3-4 kg of spinach leaves and purified by isopycnic centrifugation using Percoll gradients. Purified intact chloroplasts have then been lysed in hypotonic medium and envelope membranes purified from the lysate by sucrose centrifugation gradient as described in the article by Douce, R. and Joyard, J., (1982) in Methods in Chloroplast Molecular Biology (Edelman, M., Hallick R and Chua N H eds), pp 239-256, Elsevier Science Publishers B.V. Amsterdam.
MGDG synthase activity was assayed as described in the article by Maréchal et al. (1995).

SMILES | IC50 [µM]
C[C@@H](COC(=O)N1CCC(n2c(=O)[nH]c3ccccc32)CC1)N(Cc1ccccc1)Cc1cc2ccccc2c2ccccc12 [Compound 61, (S)-2-(benzyl(phenanthren-9-ylmethyl)amino)propyl 4-(2-oxo-2,3-dihydro-1H-benzo[d]imidazol-1-yl)piperidine-1-carboxylate hydrochloride] | 25

Same assay, conditions: Table 1, obtained in the same manner as FIG. 4; read-out: Inhibitory effect on MGDG synthesis in isolated spinach chloroplast envelope membranes

SMILES | IC50 [µM]
COc1ccc(CN(CCCOC(=O)N2CCC(n3c(=O)[nH]c4ccccc43)CC2)Cc2ccccc2)cc1 [Compound 42, 3-(benzyl(4-methoxybenzyl)amino)propyl 4-(2-oxo-2,3-dihydro-1H-benzo[d]imidazol-1-yl)piperidine-1-carboxylate hydrochloride] | 50
O=C(OC[C@@H](Cc1ccccc1)N(Cc1ccccc1)Cc1ccccc1)N1CCC(n2c(=O)[nH]c3ccccc32)CC1 [Compound 43, (R)-2-(dibenzylamino)-3-phenylpropyl 4-(1,2-dihydro-2-oxobenzo[d]imidazol-3-yl)piperidine-1-carboxylate] | 6
O=C(OCCN(Cc1ccccc1)Cc1ccncc1)N1CCC(n2c(=O)[nH]c3ccccc32)CC1 [Compound 44, 2-(benzyl(pyridin-4-ylmethyl)amino)ethyl 4-(2-oxo-2,3-dihydro-1H-benzo[d]imidazol-1-yl)piperidine-1-carboxylate] | 45
O=C(OCCN(Cc1ccccc1)Cc1ccc(F)cc1)N1CCC(n2c(=O)[nH]c3ccccc32)CC1 [Compound 45, 2-(benzyl(4-fluorobenzyl)amino)ethyl 4-(2-oxo-2,3-dihydro-1H-benzo[d]imidazol-1-yl)piperidine-1-carboxylate hydrochloride] | 5
O=C(OCCN(CCCc1ccccc1)Cc1ccccc1)N1CCC(n2c(=O)[nH]c3ccccc32)CC1 [Compound 46, 2-(benzyl(3-phenylpropyl)amino)ethyl 4-(2-oxo-2,3-dihydro-1H-benzo[d]imidazol-1-yl)piperidine-1-carboxylate hydrochloride] | 15
COc1ccc(CN(CCOC(=O)N2CCC(n3c(=O)[nH]c4ccccc43)CC2)Cc2ccccc2)cc1 [Compound 47, 2-(benzyl(4-methoxybenzyl)amino)ethyl 4-(2-oxo-2,3-dihydro-1H-benzo[d]imidazol-1-yl)piperidine-1-carboxylate hydrochloride] | 15
COc1cccc(CN(CCOC(=O)N2CCC(n3c(=O)[nH]c4ccccc43)CC2)Cc2ccccc2)c1 [Compound 48, 2-(benzyl(3-methoxybenzyl)amino)ethyl 4-(2-oxo-2,3-dihydro-1H-benzo[d]imidazol-1-yl)piperidine-1-carboxylate hydrochloride] | 15
O=C(OCCN(Cc1ccccc1)Cc1cccc(Oc2ccccc2)c1)N1CCC(n2c(=O)[nH]c3ccccc32)CC1 [Compound 49, 2-(benzyl(3-phenoxybenzyl)amino)ethyl 4-(2-oxo-2,3-dihydro-1H-benzo[d]imidazol-1-yl)piperidine-1-carboxylate hydrochloride] | 8
O=C(OCCN(Cc1ccccc1)Cc1cccc(Cl)c1)N1CCC(n2c(=O)[nH]c3ccccc32)CC1 [Compound 50, 2-(benzyl(3-chlorobenzyl)amino)ethyl 4-(2-oxo-2,3-dihydro-1H-benzo[d]imidazol-1-yl)piperidine-1-carboxylate hydrochloride] | 8
C[C@@H](COC(=O)N1CCC(n2c(=O)[nH]c3ccccc32)CC1)N(Cc1ccccc1)Cc1ccc(F)cc1 [Compound 51, (S)-2-(benzyl(4-fluorobenzyl)amino)propyl 4-(2-oxo-2,3-dihydro-1H-benzo[d]imidazol-1-yl)piperidine-1-carboxylate hydrochloride] | 40
C[C@@H](COC(=O)N1CCC(n2c(=O)[nH]c3ccccc32)CC1)N(CCCc1ccccc1)Cc1ccccc1 [Compound 52, (S)-2-(benzyl(3-phenylpropyl)amino)propyl 4-(2-oxo-2,3-dihydro-1H-benzo[d]imidazol-1-yl)piperidine-1-carboxylate hydrochloride] | 60

Continued, values first:

IC50 [µM] | SMILES
60 | C[C@@H](COC(=O)N1CCC(n2c(=O)[nH]c3ccccc32)CC1)N(Cc1ccccc1)Cc1ccnc2ccccc12 [Compound 53, (S)-2-(benzyl(quinolin-4-ylmethyl)amino)propyl 4-(2-oxo-2,3-dihydro-1H-benzo[d]imidazol-1-yl)piperidine-1-carboxylate hydrochloride]
25 | COc1cccc(CN(Cc2ccccc2)[C@@H](C)COC(=O)N2CCC(n3c(=O)[nH]c4ccccc43)CC2)c1 [Compound 54, (S)-2-(benzyl(3-methoxybenzyl)amino)propyl 4-(2-oxo-2,3-dihydro-1H-benzo[d]imidazol-1-yl)piperidine-1-carboxylate hydrochloride]
40 | C[C@@H](COC(=O)N1CCC(n2c(=O)[nH]c3ccccc32)CC1)N(Cc1ccccc1)Cc1cccc(Oc2ccccc2)c1 [Compound 55, (S)-2-(benzyl(3-phenoxybenzyl)amino)propyl 4-(2-oxo-2,3-dihydro-1H-benzo[d]imidazol-1-yl)piperidine-1-carboxylate hydrochloride]
15 | C[C@@H](COC(=O)N1CCC(n2c(=O)[nH]c3ccccc32)CC1)N(Cc1ccccc1)Cc1cccc(Cl)c1 [Compound 56, (S)-2-(benzyl(3-chlorobenzyl)amino)propyl 4-(2-oxo-2,3-dihydro-1H-benzo[d]imidazol-1-yl)piperidine-1-carboxylate hydrochloride]
75 | O=C(OCCN(Cc1ccccc1)Cc1ccnc2ccccc12)N1CCC(n2c(=O)[nH]c3ccccc32)CC1 [Compound 57, 2-(benzyl(quinolin-4-ylmethyl)amino)ethyl 4-(2-oxo-2,3-dihydro-1H-benzo[d]imidazol-1-yl)piperidine-1-carboxylate hydrochloride]
17 | O=C(OCCCN(Cc1ccccc1)Cc1cccnc1)N1CCC(n2c(=O)[nH]c3ccccc32)CC1 [Compound 58, 3-(benzyl(pyridin-3-ylmethyl)amino)propyl 4-(2-oxo-2,3-dihydro-1H-benzo[d]imidazol-1-yl)piperidine-1-carboxylate hydrochloride]
15 | O=C(OCCCN(Cc1ccccc1)Cc1ccccn1)N1CCC(n2c(=O)[nH]c3ccccc32)CC1 [Compound 59, 3-(benzyl(pyridin-2-ylmethyl)amino)propyl 4-(2-oxo-2,3-dihydro-1H-benzo[d]imidazol-1-yl)piperidine-1-carboxylate hydrochloride]
12 | C[C@@H](COC(=O)N1CCC(n2c(=O)[nH]c3ccccc32)CC1)N(Cc1ccccc1)Cc1cccc(OCc2ccccc2)c1 [Compound 60, (S)-2-(benzyl(3-(benzyloxy)benzyl)amino)propyl 4-(2-oxo-2,3-dihydro-1H-benzo[d]imidazol-1-yl)piperidine-1-carboxylate hydrochloride]
25 | C[C@@H](COC(=O)N1CCC(n2c(=O)[nH]c3ccccc32)CC1)N(Cc1ccccc1)Cc1cccc2ccccc12 [Compound 62, (S)-2-(benzyl(naphthalen-1-ylmethyl)amino)propyl 4-(2-oxo-2,3-dihydro-1H-benzo[d]imidazol-1-yl)piperidine-1-carboxylate hydrochloride]
30 | C[C@@H](COC(=O)N1CCC(n2c(=O)[nH]c3ccccc32)CC1)N(Cc1ccccc1)Cc1cccs1 [Compound 63, (S)-2-(benzyl(thiophen-2-ylmethyl)amino)propyl 4-(2-oxo-2,3-dihydro-1H-benzo[d]imidazol-1-yl)piperidine-1-carboxylate hydrochloride]
